Laboratory results reported in article PMC6521598, “Identification of GLPG/ABBV-2737, a Novel Class of Corrector, Which Exerts Functional Synergy With Other CFTR Modulators” (Frontiers in Pharmacology, 2019).

Experiments:
[1] = molecular target: T1, V232D CFTR (Homo sapiens, UniProt P13569, V232D); experiment: YFP halide assay (YHA), HEK293, V232D; format: cell-based; details: 24 h; 50 μM forskolin + 0.5 μM potentiator
T1 construct: expressed in transfected cells; host or cells: HEK293
Procedure: (§1) HEK293 cells were transfected with 10–80 ng of plasmid encoding F508del, E92K, P67L, V232D, F508del/G550E, F508del/I539T or wild type CFTR and 20 ng of plasmid encoding YFP (H148Q/I152L/F47L) using jetPEI (Polyplus transfection). Directly after transfection, cells were seeded in black 96-well plates coated with poly-D-lysine at a density of 70,000 cells per well. The next day, cells were treated with corrector(s) for 24 h. After this incubation period, cells were washed twice with DPBS with Ca^2+ and Mg^2+. Subsequently, cells were treated with 10 μM forskolin and the desired concentration of potentiator in a volume of 40 μl and incubated at room temperature for 10 min, a time point optimized in previous experiments resulting in a good window (positive control/negative control > 2) and signal to background ratio. YFP fluorescence was measured using an EnVision plate reader (PerkinElmer). […] The excitation wavelength was 485 nm and the emission wavelength 530 nm. The capacity of potentiators to increase CFTR channel function was expressed as 1-(fluorescence 7 s after NaI addition (F)/fluorescence before NaI addition (F0)). […]
(§2) FIGURE 7 YHA assay using CFTR mutant overexpression in HEK293 cells. […] After washing, cells were triggered with forskolin (50 μM for F508del, E92K, V232D and F508del/I539T, 10 μM for P67L or 1 μM for F508del/G550E) and 0.5 μM potentiator and YFP fluorescence was measured. Efficacy was determined using 10 μM GLPG2222 as positive control and DMSO as negative control in the assay. […] All values containing these digits are best readings, e.g. GLPG2222 P67L EC50 206 (± 98), GLPG2222 E92K EC50 503 (± 109), VX809 F508del EC50 286 (± 35), VX809 P67L % of reference 88 (± 3), GLPG2737 F508del % of reference 138 (± 9). / GLPG2737, EC50 for P67L and E92K is printed as NA; left out because no value is given. / VX809, E92K EC50 error: 17, a digit may be missing.

[2] = molecular target: T2, F508del/G550E CFTR (Homo sapiens, UniProt P13569, DEL508-508/G550E); experiment: YFP halide assay (YHA), HEK293, F508del/G550E; format: cell-based; details: 24 h; 1 μM forskolin + 0.5 μM potentiator
T2 construct: expressed in transfected cells; host or cells: HEK293
Procedure: as §1, §2

[3] = molecular target: F508del CFTR (Homo sapiens, UniProt P13569, DEL508-508); experiment: Patch-clamp single-channel recording, inside-out patches of CHO cells; format: cell-based, hamster
Procedure: A more complete description of the patch-clamp methodology can be found in a recent publication ([Lin et al., 2016]). Briefly, CHO (Chinese Hamster Ovary) cells were transiently transfected with pcDNA plasmids containing a F508del CFTR construct and pEGFP-C3. After transfection, cells were trypsinized and plated onto 35 mm tissue culture dishes dispersed with sterilized glass chips. Electrophysiological experiments were performed 3–7 days following transfection.
Patch-clamp experiments were performed at room temperature with an EPC-9 patch clamp amplifier (HEKA Instruments, Holliston, MA, United States). Recording microelectrodes were made from borosilicate capillary glass with a two-stage pipette puller (Narishige, Tokyo, Japan). The pipette tip was polished with a home-made microforge before use. The pipette solution contained (in mM) 140 NMDG (N-methyl-D-glucamine)-Cl (Fisher Biotec), 2 MgCl2 (Fisher Biotec, Perth, WA, Australia), 5 CaCl2 (Fisher Biotec), and 10 HEPES (Fisher Biotec), pH 7.4, with NMDG (see [Lin et al., 2016] for details). The pipette resistance when filled with the regular pipette solution was 3–5 MΩ. Once the tip of the pipette and the cell membrane established GΩ resistance, the electrode was quickly pulled away from the cell to form an inside-out patch, where the cytosolic side of the membrane was exposed to the perfusion solution. Cells were perfused with a bath solution having (in mM) 145 NaCl (Fisher Biotec), 5 KCl (Fisher Biotec), 2 MgCl2, 1 CaCl2, 5 glucose (Fisher Biotec), 5 HEPES, and 20 sucrose (Fisher Biotec), pH 7.4, with NaOH (Fisher Biotec). After establishing an inside-out configuration, the patch was perfused with a standard perfusion solution (i.e., intracellular solution) containing (in mM) 150 NMDG-Cl, 2 MgCl2, 10 EGTA (Fisher Biotec), and 8 Tris (Fisher Biotec), pH 7.4, with NMDG (see [Lin et al., 2016] for details) containing the catalytic subunit of protein kinase A (PKA) and 2 mM ATP. Once the phosphorylation-dependent activation of CFTR reached a plateau, 10 μM GLPG3067 was applied in the continuous presence of 2 mM ATP until a steady state was attained.
Microscopic kinetic analysis was performed with a program provided by Dr. László Csanády (Semmelweis University, Budapest, Hungary) ([Csanády, 2000]). Experiments were performed four to five times and averages and SEM were calculated. The resulting Open probability (Po) values and single-channel kinetic parameters were compared with paired t-test (Excel, Microsoft); P < 0.05 is considered statistically significant.

[4] = molecular target: T3, F508del/I539T CFTR (Homo sapiens, UniProt P13569, DEL508-508/I539T); experiment: YFP halide assay (YHA), HEK293, F508del/I539T; format: cell-based; details: 24 h; 50 μM forskolin + 0.5 μM potentiator
T3 construct: expressed in transfected cells; host or cells: HEK293
Procedure: as §1, §2

[5] = molecular target: T4, P67L CFTR (Homo sapiens, UniProt P13569, P67L); experiment: YFP halide assay (YHA), HEK293, P67L; format: cell-based; details: for rescue of P67L: YFP halide assay
T4 construct: expressed in transfected cells; host or cells: HEK293
Procedure: HEK293 cells were transfected with 10–80 ng of plasmid encoding F508del, E92K, P67L, V232D, F508del/G550E, F508del/I539T or wild type CFTR and 20 ng of plasmid encoding YFP (H148Q/I152L/F47L) using jetPEI (Polyplus transfection). Directly after transfection, cells were seeded in black 96-well plates coated with poly-D-lysine at a density of 70,000 cells per well. The next day, cells were treated with corrector(s) for 24 h. After this incubation period, cells were washed twice with DPBS with Ca^2+ and Mg^2+. Subsequently, cells were treated with 10 μM forskolin and the desired concentration of potentiator in a volume of 40 μl and incubated at room temperature for 10 min, a time point optimized in previous experiments resulting in a good window (positive control/negative control > 2) and signal to background ratio. YFP fluorescence was measured using an EnVision plate reader (PerkinElmer). […] The excitation wavelength was 485 nm and the emission wavelength 530 nm. The capacity of potentiators to increase CFTR channel function was expressed as 1-(fluorescence 7 s after NaI addition (F)/fluorescence before NaI addition (F0)). For the different mutants, data was normalized using the formula: normalized response = 100^∗(absolute response – negative control response)/(GLPG2222 response – negative response) as such, GLPG2222 response corresponds to 100. Concentration–response experiments were fitted using a 4 parameter hill function of the form Response = Bottom + (Top - Bottom)/(1 + (EC50/concentration) ˆHillSlope)) to determine EC50 values.
FIGURE 7 YHA assay using CFTR mutant overexpression in HEK293 cells. Cells were incubated for 24 h with either a dose range of GLPG2737, GLPG2222 or VX809. After washing, cells were triggered with forskolin (50 μM for F508del, E92K, V232D and F508del/I539T, 10 μM for P67L or 1 μM for F508del/G550E) and 0.5 μM potentiator and YFP fluorescence was measured. Efficacy was determined using 10 μM GLPG2222 as positive control and DMSO as negative control in the assay. (A) Table with potency and efficacy obtained for the mutants and compounds tested. (B) Dose–response curves of GLPG2737. (C) Dose–response curves of GLPG2222. (D) Dose–response curves of VX-809. For panels (B–D), E92K mutant is represented in black, F508del mutant in blue, F508del/I539T mutant in green and V232D mutant in gray, all concentrations are tested in duplicate. […] All values containing these digits are best readings, e.g. GLPG2222 P67L EC50 206 (± 98), GLPG2222 E92K EC50 503 (± 109), VX809 F508del EC50 286 (± 35), VX809 P67L % of reference 88 (± 3), GLPG2737 F508del % of reference 138 (± 9). / GLPG2737, EC50 for P67L and E92K is printed as NA; left out because no value is given. / VX809, E92K EC50 error: 17, a digit may be missing.

[6] = cells treated 24 h with 0.5 μM GLPG2222 only, n = 3
[7] = acute addition of 1 μM GLPG2737 on top of 0.5 μM GLPG2222 + 10 μM GLPG3067
[8] = cells pre-treated 24 h with 0.5 μM GLPG2222 + 1 μM GLPG2737 + 10 μM GLPG3067, compounds in recording solution
[9] = same pre-treatment, after washout of GLPG2737 (GLPG2222 + GLPG3067 present)

T4 sequence (P13569 whole entry P67L): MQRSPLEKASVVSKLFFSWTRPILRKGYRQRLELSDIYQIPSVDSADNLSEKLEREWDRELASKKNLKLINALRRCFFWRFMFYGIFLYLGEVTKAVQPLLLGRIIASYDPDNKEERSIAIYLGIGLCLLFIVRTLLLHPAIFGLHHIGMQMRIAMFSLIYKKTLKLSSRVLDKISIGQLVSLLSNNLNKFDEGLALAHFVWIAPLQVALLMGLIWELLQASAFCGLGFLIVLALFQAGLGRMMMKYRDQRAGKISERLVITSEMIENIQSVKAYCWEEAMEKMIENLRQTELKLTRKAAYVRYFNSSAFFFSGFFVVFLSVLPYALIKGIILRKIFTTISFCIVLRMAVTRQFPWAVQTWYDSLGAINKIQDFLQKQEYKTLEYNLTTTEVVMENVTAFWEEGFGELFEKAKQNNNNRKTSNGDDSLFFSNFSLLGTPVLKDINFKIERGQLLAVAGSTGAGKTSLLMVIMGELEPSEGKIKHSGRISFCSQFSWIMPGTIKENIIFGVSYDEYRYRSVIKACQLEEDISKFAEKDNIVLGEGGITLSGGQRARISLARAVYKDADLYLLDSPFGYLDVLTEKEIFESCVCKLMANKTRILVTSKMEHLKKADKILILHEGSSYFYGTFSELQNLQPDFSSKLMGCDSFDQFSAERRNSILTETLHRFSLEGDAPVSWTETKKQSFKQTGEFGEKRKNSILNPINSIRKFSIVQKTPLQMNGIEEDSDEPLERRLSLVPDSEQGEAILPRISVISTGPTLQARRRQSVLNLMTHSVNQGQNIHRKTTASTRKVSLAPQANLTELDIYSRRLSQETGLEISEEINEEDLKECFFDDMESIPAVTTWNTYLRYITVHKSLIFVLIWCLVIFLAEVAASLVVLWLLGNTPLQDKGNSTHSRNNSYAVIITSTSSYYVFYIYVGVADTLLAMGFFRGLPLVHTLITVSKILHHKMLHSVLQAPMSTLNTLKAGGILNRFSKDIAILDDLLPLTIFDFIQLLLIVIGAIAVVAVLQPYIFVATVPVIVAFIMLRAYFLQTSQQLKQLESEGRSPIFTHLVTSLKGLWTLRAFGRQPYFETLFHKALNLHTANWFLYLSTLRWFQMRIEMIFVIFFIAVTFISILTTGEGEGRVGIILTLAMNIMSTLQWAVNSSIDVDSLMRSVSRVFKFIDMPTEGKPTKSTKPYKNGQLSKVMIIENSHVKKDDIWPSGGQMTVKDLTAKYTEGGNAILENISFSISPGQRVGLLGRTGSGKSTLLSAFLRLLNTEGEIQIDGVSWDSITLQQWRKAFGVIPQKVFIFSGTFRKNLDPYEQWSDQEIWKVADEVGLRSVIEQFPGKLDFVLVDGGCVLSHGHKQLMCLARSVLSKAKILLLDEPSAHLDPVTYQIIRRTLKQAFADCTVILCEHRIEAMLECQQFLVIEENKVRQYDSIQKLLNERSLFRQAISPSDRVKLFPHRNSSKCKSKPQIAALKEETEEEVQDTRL
Sequence of F508del CFTR (P13569 with tags, fused parts or gaps DEL508-508): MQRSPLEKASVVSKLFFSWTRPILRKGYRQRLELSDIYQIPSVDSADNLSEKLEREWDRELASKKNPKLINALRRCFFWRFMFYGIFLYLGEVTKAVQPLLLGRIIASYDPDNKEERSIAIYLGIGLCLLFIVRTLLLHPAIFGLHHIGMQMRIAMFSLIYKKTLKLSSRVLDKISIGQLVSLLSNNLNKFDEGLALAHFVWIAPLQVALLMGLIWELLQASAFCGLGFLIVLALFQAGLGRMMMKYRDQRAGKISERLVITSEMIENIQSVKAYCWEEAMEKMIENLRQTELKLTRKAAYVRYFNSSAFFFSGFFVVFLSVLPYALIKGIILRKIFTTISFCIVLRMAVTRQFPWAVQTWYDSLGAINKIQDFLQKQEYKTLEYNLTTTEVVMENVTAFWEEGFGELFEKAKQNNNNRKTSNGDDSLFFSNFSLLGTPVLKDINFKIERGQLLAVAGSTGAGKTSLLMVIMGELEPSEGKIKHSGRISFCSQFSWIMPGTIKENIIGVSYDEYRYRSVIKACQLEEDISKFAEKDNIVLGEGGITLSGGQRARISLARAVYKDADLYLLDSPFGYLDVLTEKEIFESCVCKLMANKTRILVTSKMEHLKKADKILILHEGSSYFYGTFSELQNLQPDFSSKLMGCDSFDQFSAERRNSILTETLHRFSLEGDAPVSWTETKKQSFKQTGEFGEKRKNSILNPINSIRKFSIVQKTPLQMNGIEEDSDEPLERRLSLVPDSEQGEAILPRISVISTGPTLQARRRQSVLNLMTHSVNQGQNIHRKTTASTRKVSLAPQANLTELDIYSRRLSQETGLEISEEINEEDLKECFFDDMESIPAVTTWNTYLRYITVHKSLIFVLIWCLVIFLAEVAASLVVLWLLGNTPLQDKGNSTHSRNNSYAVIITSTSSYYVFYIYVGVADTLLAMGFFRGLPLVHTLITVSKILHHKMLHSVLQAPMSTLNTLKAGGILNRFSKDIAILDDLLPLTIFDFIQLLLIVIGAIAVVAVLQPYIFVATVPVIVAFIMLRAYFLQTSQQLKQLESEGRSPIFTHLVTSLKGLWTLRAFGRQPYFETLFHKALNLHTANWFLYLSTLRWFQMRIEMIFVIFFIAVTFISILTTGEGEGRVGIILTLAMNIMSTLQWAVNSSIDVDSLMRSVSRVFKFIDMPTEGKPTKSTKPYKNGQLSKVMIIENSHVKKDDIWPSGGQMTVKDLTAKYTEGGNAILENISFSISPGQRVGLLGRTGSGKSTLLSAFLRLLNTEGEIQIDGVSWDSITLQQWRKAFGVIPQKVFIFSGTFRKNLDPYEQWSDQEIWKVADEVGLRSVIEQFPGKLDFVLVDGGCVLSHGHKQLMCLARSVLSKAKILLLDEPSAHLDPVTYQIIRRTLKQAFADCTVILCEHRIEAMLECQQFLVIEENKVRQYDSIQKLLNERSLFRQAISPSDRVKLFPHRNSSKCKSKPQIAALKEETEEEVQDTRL
T1 sequence (P13569 whole entry V232D): as the sequence (P13569 whole entry P67L) above, with L67P, V232D counted along it
T2 sequence (P13569 with tags, fused parts or gaps DEL508-508/G550E): as the sequence (P13569 with tags, fused parts or gaps DEL508-508) above, with G549E counted along it
T3 sequence (P13569 with tags, fused parts or gaps DEL508-508/I539T): as the sequence (P13569 with tags, fused parts or gaps DEL508-508) above, with I538T counted along it

| EC50 [1] | EC50 [2] | Po [3, 6] | τc [3, 6] | τo [3, 6] | EC50 [4] | EC50 ([5]; 24 h, 10 μM forskolin + 0.5 μM potentiator) | rescue of P67L [5] | Po [3, 7] | τc [3, 7] | τo [3, 7] | apparent Po [3, 8] | τc [3, 8] | τo [3, 8] | Po [3, 9] | τc [3, 9] | τo [3, 9] | Structure (SMILES) |
| --- | --- | --- | --- | --- | --- | --- | --- | --- | --- | --- | --- | --- | --- | --- | --- | --- | --- |
| 14 nM | 9 nM | 0.04 ± 0.01 | 6.88 ± 3.36 s | 0.25 ± 0.08 s | 4 nM | 206 nM | could be rescued |  |  |  |  |  |  |  |  |  | O=C(O)c1ccc([C@H]2C[C@@H](NC(=O)C3(c4ccc5c(c4)OC(F)(F)O5)CC3)c3ccc(OC(F)F)cc3O2)cc1 [GLPG2222, 4-[(2 R,4 R)-4-({[1-(2,2-Difluoro-1,3-benzodioxol-5-yl)cyclopropyl]carbonyl}amino)-7-(difluoromethoxy)-3,4-dihydro-2 H -chromen-2-yl]benzoic Acid] |
| 161 nM | 251 nM |  |  |  | 67 nM |  | absence of rescue | 0.15 ± 0.01 | 6.42 ± 1.24 s | 1.37 ± 0.33 s | 0.21 ± 0.003 | 10.35 ± 2.22 s | 2.68 ± 0.59 s | 0.63 ± 0.05 | 1.89 ± 0.38 s | 3.28 ± 0.09 s | COC1CCN(C2CCN(c3cc(C(=O)NS(=O)(=O)N(C)C)nc4c3c(C3CCC3)nn4-c3ccc(F)cc3)CC2)CC1 [GLPG2737] |
